Molecular target: T1, NLRP3 inflammasome (Homo sapiens, UniProt Q96P20)
T1 construct: endogenous in cells; host or cells: THP-1 cells (PMA-differentiated, LPS-primed, nigericin-stimulated)
Test: Cell assay of inhibitory activity against NLRP3 inflammasome in THP-1 cells (LPS/nigericin stimulation, caspase-1 glo readout)
Type: cell-based
Settings: PMA-differentiated THP-1 cells; LPS 500 ng/ml 3 h, compound 1 h, nigericin 10 µg/ml 30 min; active caspase-1 in supernatant
Method: Experimental Example 1: Cell assay of inhibitory activity of the compounds of the present disclosure against NLRP3 inflammasome
Test compounds: the compounds of the present disclosure prepared in accordance with the methods described in the Examples
THP-1 was an immortalized human macrophage cell line.
Test instrument: Microplate reader (manufactured by PE)
• 1. THP-1 cells were cultured in 1640 complete medium (500 ml 1640+56 ml FBS+560 µl 1000× P/S+2 µl mercaptoethanol), and used within 3 to 20 passages. • 2. Coating of culture plates: 100 µl of polylysine solution was added into a 96-well cell culture plate and incubated at 37°C for 30min. The solution was discarded, and the plate was washed twice with PBS for later use. • 3. Induction of differentiation of THP-1: THP-1 cells were resuspended in an appropriate amount of complete medium containing 10 ng/ml PMA to achieve a cell density of 5×10^5 cells /ml in the suspension. The cell suspension was added into a 96-well plate with 100 µl of cell suspension per well, and the 96-well plate was cultured overnight for 16 hours in a 37°C CO2 cell incubator. • 4. Stimulation of THP-1: • a. Serum-free THP-1 culture medium containing LPS was added to achieve a final concentration of 500 ng/ml, and the resultant was cultured in a 37°C CO2 cell incubator for 3h; • b. The compounds to be tested were prepared into stock solutions at gradient concentrations with DMSO. The resulting solutions were added to the cells, evenly mixed, and finally diluted at 1:1000. The 96-well plate was cultured in a 37°C CO2 cell incubator for 1h. • c. Nigericin was added to each well to achieve a final concentration of 10 µg/ml, and the resultant was cultured in a 37°C CO2 cell incubator for 30 min. • d. The resulting culture medium in each well was transferred to a new culture plate, which was then centrifuged at 3000 rpm for 5min. Afterwards, the supernatant was transferred to a new 96-well plate. • e. The collected supernatant samples of the cell culture medium were determined by using a commercial caspase-1 glo kit, and the content of human active caspase-1 was determined according to the manufacturer's instructions.

T1 sequence (Q96P20 whole entry): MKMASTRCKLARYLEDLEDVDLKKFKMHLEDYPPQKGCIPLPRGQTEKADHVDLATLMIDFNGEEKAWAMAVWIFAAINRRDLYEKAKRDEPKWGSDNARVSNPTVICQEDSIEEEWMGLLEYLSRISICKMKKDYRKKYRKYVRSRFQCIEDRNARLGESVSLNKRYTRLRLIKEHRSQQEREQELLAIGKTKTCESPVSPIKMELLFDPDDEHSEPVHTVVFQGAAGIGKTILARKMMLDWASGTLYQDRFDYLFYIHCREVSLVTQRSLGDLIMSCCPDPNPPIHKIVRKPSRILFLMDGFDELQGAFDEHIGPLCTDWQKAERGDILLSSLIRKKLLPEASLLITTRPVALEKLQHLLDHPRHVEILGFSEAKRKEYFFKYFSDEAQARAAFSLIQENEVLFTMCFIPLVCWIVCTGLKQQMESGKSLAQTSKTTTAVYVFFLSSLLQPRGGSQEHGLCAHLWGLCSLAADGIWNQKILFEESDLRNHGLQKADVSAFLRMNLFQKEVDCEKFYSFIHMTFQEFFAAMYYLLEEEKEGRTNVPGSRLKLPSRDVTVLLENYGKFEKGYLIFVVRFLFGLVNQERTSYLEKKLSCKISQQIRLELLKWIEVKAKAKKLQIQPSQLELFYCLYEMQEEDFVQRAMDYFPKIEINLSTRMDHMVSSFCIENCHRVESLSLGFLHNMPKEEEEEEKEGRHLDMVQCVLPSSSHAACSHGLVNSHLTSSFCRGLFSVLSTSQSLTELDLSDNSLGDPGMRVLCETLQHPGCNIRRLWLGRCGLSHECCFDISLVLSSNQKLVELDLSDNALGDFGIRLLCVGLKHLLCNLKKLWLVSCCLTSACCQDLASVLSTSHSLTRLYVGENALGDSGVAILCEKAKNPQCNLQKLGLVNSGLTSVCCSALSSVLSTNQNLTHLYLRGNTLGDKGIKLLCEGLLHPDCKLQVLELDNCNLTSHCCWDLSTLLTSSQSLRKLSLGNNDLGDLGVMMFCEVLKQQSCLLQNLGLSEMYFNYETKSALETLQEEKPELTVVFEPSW

IC50 | Structure (SMILES)
0.0029 µM | C#Cc1ccc(-c2nnc(NC(=O)[C@@H](C)NC)cc2C2CC2)c(O)c1 [Compound 36, (R)-N-(5-cyclopropyl-6-(4-ethynyl-2-hydroxyphenyl)pyridazin-3-yl)-2-(methylamino)prop anamide]
0.0236 µM | C#Cc1ccc(-c2nnc(NC(=O)[C@H](N)CO)cc2C2CC2)c(O)c1 [Compound 55, (R)-2-amino-N-(5-cyclopropyl-6-(4-ethynyl-2-hydroxyphenyl)pyridazin-3-yl)-3-hydroxypr opanamide]
0.0209 µM | C#Cc1ccc(-c2nnc(NC(=O)CNC)cc2C2CCC2)c(O)c1 [Compound 62, N-(5-cyclobutyl-6-(4-ethynyl-2-hydroxyphenyl)pyridazin-3-yl)-2-(methylamino)acetamide]
0.0192 µM | C#Cc1ccc(-c2nnc(NC(=O)CNC3CC3)cc2C2CC2)c(O)c1 [Compound 10, N-(5-cyclopropyl-6-(4-ethynyl-2-hydroxyphenyl)pyridazin-3-yl)-2-(cyclopropylamino)acet amide]
0.0064 µM | C#Cc1ccc(-c2nnc(NC(=O)[C@@H](C)N)cc2C2CC2)c(O)c1 [Compound 44, (R)-2-amino-N-(5-cyclopropyl-6-(4-ethynyl-2-hydroxyphenyl)pyridazin-3-yl)propanamide]
0.0214 µM | C#Cc1ccc(-c2nnc(NC(=O)[C@H]3CCCN3)cc2C2CC2)c(O)c1 [Compound 43, (R)-N-(5-cyclopropyl-6-(4-ethynyl-2-hydroxyphenyl)pyridazin-3-yl)pyrrolidine-2-carboxamide]
0.0315 µM | C#Cc1ccc(-c2nnc(NC(=O)[C@@H](C)N)cc2C2CCC2)c(O)c1 [Compound 65, (R)-2-amino-N-(5-cyclobutyl-6-(4-ethynyl-2-hydroxyphenyl)pyridazin-3-yl)propanamide]
0.0145 µM | C#Cc1ccc(-c2nnc(NC(=O)CNC3CC(O)C3)cc2C2CC2)c(O)c1 (centres unmarked) [Compound 33, N-(5-cyclopropyl-6-(4-ethynyl-2-hydroxyphenyl)pyridazin-3-yl)-2-((3-hydroxycyclobutyl)amino)acetamide]
0.0129 µM | C#Cc1ccc(-c2nnc(NC(=O)[C@H](N)Cc3ccccc3)cc2C2CC2)c(O)c1 [Compound 52, (R)-2-amino-N-(5-cyclopropyl-6-(4-ethynyl-2-hydroxyphenyl)pyridazin-3-yl)-3-phenylpro panamide]
0.0013 µM | C#Cc1ccc(-c2nnc(NC(=O)CNC)cc2C2CC2)c(O)c1 [Compound 7, N-(5-cyclopropyl-6-(4-ethynyl-2-hydroxyphenyl)pyridazin-3-yl)-2-(methylamino)acetamide]
0.0146 µM | C#Cc1ccc(-c2nnc(NC(=O)[C@H](N)COC)cc2C2CC2)c(O)c1 [Compound 51, (R)-2-amino-N-(5-cyclopropyl-6-(4-ethynyl-2-hydroxyphenyl)pyridazin-3-yl)-3-methoxyp ropanamide]
0.0294 µM | C#Cc1ccc(-c2nnc(NC(=O)[C@H](C)NC)cc2C2CC2)c(O)c1 [Compound 37, (S)-N-(5-cyclopropyl-6-(4-ethynyl-2-hydroxyphenyl)pyridazin-3-yl)-2-(methylamino)prop anamide]
0.0323 µM | C#Cc1ccc(-c2nnc(NC(=O)[C@H](N)[C@@H](C)O)cc2C2CC2)c(O)c1 [Compound 59, (2R,3R)-2-amino-N-(5-cyclopropyl-6-(4-ethynyl-2-hydroxyphenyl)pyridazin-3-yl)-3-hydro xybutanamide]
0.0068 µM | C[C@@H](N)C(=O)Nc1cc(C2CC2)c(-c2ccc(C(F)(F)F)cc2O)nn1 [Compound 50, (R)-2-amino-N-(5-cyclopropyl-6-(2-hydroxy-4-(trifluoromethyl)phenyl)pyridazin-3-yl)pro panamide]
0.0059 µM | C#Cc1ccc(-c2nnc(NC(=O)[C@H](N)C3CC3)cc2C2CC2)c(O)c1 [Compound 53, (R)-2-amino-2-cyclopropyl-N-(5-cyclopropyl-6-(4-ethynyl-2-hydroxyphenyl)pyridazin-3-yl)acetamide]

Second part, the compound before the results:

Structure (SMILES) | IC50
CNCC(=O)Nc1cc(C2CC2)c(-c2ccc(C(F)(F)F)cc2O)nn1 [Compound 20, N-(5-cyclopropyl-6-(2-hydroxy-4-(trifluoromethyl)phenyl)pyridazin-3-yl)-2-(methylamino)acetamide] | 0.0003 µM
C#Cc1ccc(-c2nnc(NC(=O)[C@@H](C)N)cc2C(C)C)c(O)c1 [Compound 66, (R)-2-amino-N-(6-(4-ethynyl-2-hydroxyphenyl)-5-isopropylpyridazin-3-yl)propanamide] | 0.0139 µM
CNCC(=O)Nc1cc(C2CC2)c(-c2ccc(Cl)cc2O)nn1 [Compound 67, N-(6-(4-chloro-2-hydroxyphenyl)-5-cyclopropylpyridazin-3-yl)-2-(methylamino)acetamide] | 0.0056 µM
C#Cc1ccc(-c2nnc(NC(=O)CNCC3CC3)cc2C)c(O)c1 [Compound 34, N-(6-(4-ethynyl-2-hydroxyphenyl)-5-methylpyridazin-3-yl)-2-((cyclopropylmethyl)amino) acetamide] | 0.0188 µM
CNCC(=O)Nc1cc(C)c(-c2ccc(C(F)(F)F)cc2O)nn1 [Compound 17, N-(6-(2-hydroxy-4-(trifluoromethyl)phenyl)-5-methylpyridazin-3-yl)-2-(methylamino)acet amide] | 0.0178 µM
CNCC(=O)Nc1cc(C2CCC2)c(-c2ccc(C(F)(F)F)cc2O)nn1 [Compound 61, N-(5-cyclobutyl-6-(2-hydroxy-4-(trifluoromethyl)phenyl)pyridazin-3-yl)-2-(methylamino) acetamide] | 0.0062 µM
CC(C)c1cc(NC(=O)[C@@H](C)N)nnc1-c1ccc(C(F)(F)F)cc1O [Compound 64, (R)-2-amino-N-(6-(2-hydroxy-4-(trifluoromethyl)phenyl)-5-isopropylpyridazin-3-yl)propa namide] | 0.0141 µM
C#Cc1ccc(-c2nnc(NC(=O)CNC3CCC3)cc2C)c(O)c1 [Compound 31, N-(6-(4-ethynyl-2-hydroxyphenyl)-5-methylpyridazin-3-yl)-2-(cyclobutylamino)acetamide] | 0.0131 µM
CNCC(=O)Nc1nnc(-c2ccc(C(F)(F)F)cc2O)c(C2CC2)n1 [Compound 60, N-(5-cyclopropyl-6-(2-hydroxy-4-(trifluoromethyl)phenyl)-1,2,4-triazin-3-yl)-2-(methylamino)acetamide] | 0.0321 µM
CNCC(=O)Nc1cc(C(C)C)c(-c2ccc(C(F)(F)F)cc2O)nn1 [Compound 19, N-(6-(2-hydroxy-4-(trifluoromethyl)phenyl)-5-isopropylpyridazin-3-yl)-2-(methylamino)a cetamide] | 0.0034 µM
C#Cc1ccc(-c2nnc(NC(=O)CNCC)cc2C)c(O)c1 [Compound 2, N-(6-(4-ethynyl-2-hydroxyphenyl)-5-methylpyridazin-3-yl)-2-(ethylamino)acetamide] | 0.0181 µM
C#Cc1ccc(-c2nnc(NC(=O)CNC(C)C)cc2C)c(O)c1 [Compound 3, N-(6-(4-ethynyl-2-hydroxyphenyl)-5-methylpyridazin-3-yl)-2-(isopropylamino)acetamide] | 0.0324 µM
C#Cc1ccc(-c2nnc(NC(=O)CNC)cc2C(C)C)c(O)c1 [Compound 16, N-(6-(4-ethynyl-2-hydroxyphenyl)-5-isopropylpyridazin-3-yl)-2-(methylamino)acetamide] | 0.0085 µM
C#Cc1ccc(-c2nnc(NC(=O)CNC)cc2C)c(O)c1 [Compound 1, N-(6-(4-ethynyl-2-hydroxyphenyl)-5-methylpyridazin-3-yl)-2-(methylamino)acetamide] | 0.0165 µM
